# Assay results taken from patent publication US20210079384A1, “NON-INVASIVE DETECTION OF RESPONSE TO A TARGETED THERAPY” (The Johns Hopkins University, priority 2018, published 2021).
# What was measured:
# [1] = system: advanced non-small cell lung cancer (NSCLC) patients; assay: Progression-free survival by RECIST 1.1 CT assessment in NSCLC patients on TKI therapy; assay type: in vivo, human; conditions: single patient CGPLLU2 with metastatic disease; osimertinib 80 mg PO daily; subsequently developed resistance in the primary lung lesion
# From the text: (§1) Serial blood was drawn from fifteen advanced non-small cell lung cancer (NSCLC) patients undergoing treatment with targeted tyrosine kinase inhibitors (TKIs), afatinib or osimertinib, to directly detect somatic sequence and structural alterations in cfDNA, to monitor ctDNA dynamics during therapy, to determine cell-free tumor burden, and to predict clinical outcome (FIG. 1). Liquid biopsies were obtained from 11 radiographic responders and four radiographic non-responders immediately prior to treatment (baseline), 6-22 days post treatment, and at serial time points until disease progression. The ultrasensitive targeted error correction sequencing (TEC-Seq) approach (6) was used as well as whole genome sequencing to identify tumor-derived sequence alterations and chromosomal copy number changes in cell-free DNA (cfDNA). […] Next, changes in cfTL were evaluated within hours to days after treatment compared to baseline and assessed whether cfTL could serve as a marker of patient outcome.
# For each patient, ˜5 ml of plasma were collected immediately prior to therapy (baseline), at 6-22 days after therapy initiation (median 16 days), and at additional serial time points until disease progression was confirmed by radiographic assessment (Tables S1 and S2). Target lesions were evaluated before therapy with CT/MRI imaging and approximately every six weeks until disease progression. […]
# [2] = system: advanced non-small cell lung cancer (NSCLC) patients; assay: Cell-free tumor load (cfTL) in plasma cfDNA by TEC-Seq during TKI therapy; assay type: in vivo, human; conditions: single patient CGPLLU2 with metastatic disease; osimertinib 80 mg PO daily
# From the text: as §1, with “progression.” for “progression. The ultrasensitive targeted error correction sequencing (TEC-Seq) approach (6) was used as well as whole genome sequencing to identify tumor-derived sequence alterations and chromosomal copy number changes in cell-free DNA (cfDNA).”, “outcome. […]” for “outcome.”
# For all patients, serial blood draws were collected over the course of treatment with targeted inhibition for isolation of plasma and extraction of cell-free DNA (cfDNA) for genomic analyses. Time points were analyzed immediately prior to treatment for baseline assessment as well as 6-22 days post treatment and at serial time points until disease progression (Table S2).
# Sequence and copy number alterations were detected in cfDNA for each patient at each time point analyzed and used a tiered approach to evaluate tumor burden. […]
smiles,measurement,setting,value
C=CC(=O)Nc1cc(Nc2nccc(-c3cn(C)c4ccccc34)n2)c(OC)cc1N(C)CCN(C)C [osimertinib],progression-free survival,[1],7.0 months
same,change of cfTL from baseline to day 10,[2],rapid decline
